{
  "source": "patent US20160045463A1",
  "about": "“USE OF METALLOPROTEASE INHIBITORS IN THE TREATMENT OF POLYCYSTIC LIVER DISEASES” (UNIVERSIDAD DE SALAMANCA, priority 2012, published 2016)",
  "key": {"recombinant MMP-10": {"molecular_target": "recombinant MMP-10 (Homo sapiens, UniProt P09238)", "sequence (P09238 99-476, species assumed)": "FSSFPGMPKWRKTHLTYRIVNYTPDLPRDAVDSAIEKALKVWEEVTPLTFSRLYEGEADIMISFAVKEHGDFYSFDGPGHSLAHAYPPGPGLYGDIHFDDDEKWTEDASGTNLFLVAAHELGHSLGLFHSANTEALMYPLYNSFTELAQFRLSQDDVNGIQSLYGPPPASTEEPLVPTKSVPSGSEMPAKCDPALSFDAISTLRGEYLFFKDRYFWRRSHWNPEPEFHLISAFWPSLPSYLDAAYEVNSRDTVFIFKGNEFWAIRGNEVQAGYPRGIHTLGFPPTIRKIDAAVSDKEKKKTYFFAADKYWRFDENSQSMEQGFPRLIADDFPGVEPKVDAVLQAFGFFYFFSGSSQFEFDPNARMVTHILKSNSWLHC", "experiment": "ES001 fluorogenic peptide assay with recombinant MMP-10 as positive control", "type": "biochemical", "conditions": "FIG. 2", "procedure": "Metalloproteolytic or metalloprotease activity was measured in supernatants of cultures of normal human cholangiocytes and polycystic human cholangiocytes by an assay based on the cleavage of the ES001 fluorogenic synthetic peptide (R&D Systems Minneapolis, Minn., USA) that emits fluorescence proportional to metalloproteolytic activity. The substrate Mca-Pro-Leu-Gly-Leu-Dpa-Ala-Arg-NH2 [Mca: (7-Methoxycoumarin-4-yl)acetyl, Dpa: N-3-(2,4-Dinitrophenyl)-L-2,3-diaminopropionyl] […]\nThe basal metalloproteolytic activity of normal human cholangiocyte and polycystic human cholangiocytes cultures was determined by trypsinising the contents of 250 ml flasks and counting the number of cells in an inverted optical microscope using a Neubauer camera and a ½ dilution of the cell solution with trypan blue (Sigma). […] The fluorescence determination was kinetically measured in a Spectra MAX GeminiXS (Molecular Devices Sunnyvale, Calif., USA) spectrophotometer at excitation-emission wavelengths of 320-405 nm. The fluorescence intensity emitted by the culture medium was extracted from the metalloproteolytic activity values. The metalloproteolytic activity was calculated from the tangent to the curve of the fluorescence values using at least six different points over time for each type of cell and condition."}, "[1]": {"system": "normal human cholangiocytes", "experiment": "Metalloproteolytic activity of culture supernatants, ES001 fluorogenic peptide cleavage", "type": "cell-based", "procedure": "(§1) Metalloproteolytic or metalloprotease activity was measured in supernatants of cultures of normal human cholangiocytes and polycystic human cholangiocytes by an assay based on the cleavage of the ES001 fluorogenic synthetic peptide (R&D Systems Minneapolis, Minn., USA) that emits fluorescence proportional to metalloproteolytic activity. The substrate Mca-Pro-Leu-Gly-Leu-Dpa-Ala-Arg-NH2 [Mca: (7-Methoxycoumarin-4-yl)acetyl, Dpa: N-3-(2,4-Dinitrophenyl)-L-2,3-diaminopropionyl] (Knight C G, et al. FEBS Letters 1992; 296:263) is lysed between glycine and leucine by the action of the MMPs, especially MMP-1 (collagenase 1), MMP-2 (gelatinase A), MMP-7 (matrilysin), MMP-8 (collagenase 2), MMP-9 (gelatinase B), MMP-12 (macrophage elastase), MMP-13 (collagenase 3), MMP-14 (MT1-MMP), MMP-15 (MT2-MMP) and MMP-16 (MT3-MMP).\n(§2) The basal metalloproteolytic activity of normal human cholangiocyte and polycystic human cholangiocytes cultures was determined by trypsinising the contents of 250 ml flasks and counting the number of cells in an inverted optical microscope using a Neubauer camera and a ½ dilution of the cell solution with trypan blue (Sigma). Next, 300,000 cells were seeded in each well of a 6-well plate and incubated with enriched DMEM/F-12 medium for 24 hours. After this time, the cells were washed with PBS and the culture medium changed for 2 ml of quiescent medium (DMEM/F-12, 1% FBS and 1% P/S) and incubated for 6 hours at 37° C./5% CO2. The supernatant was collected from each well and centrifuged at 4° C. for 10 minutes at 1,500 rpm to remove the dead cells present in the supernatant. The supernatant was concentrated 50 times using a 15 kDa (Millipore) Amicon Ultra concentrator. Next the concentrated supernatant was incubated for 2 hours at 37° C. with the ES001 fluorogenic peptide at a final concentration of 10 μM. Also, GM6001 (a global MMP inhibitor) and aprotinin (a global inhibitor of serine proteases) (both from Sigma-Aldrich) were used as controls of the specificity of the analysis of MMP activity in the assay. Recombinant MMP-10 (kindly provided by Dr. José Antonio Rodriguez Garcia, Laboratorio de Ateroesclerosis e Inflamación del CIMA, Universidad de Navarra) was used as a positive control and DMEM/F-12 medium without serum was used as the negative control. The fluorescence determination was kinetically measured in a Spectra MAX GeminiXS (Molecular Devices Sunnyvale, Calif., USA) spectrophotometer at excitation-emission wavelengths of 320-405 nm. The fluorescence intensity emitted by the culture medium was extracted from the metalloproteolytic activity values. The metalloproteolytic activity was calculated from the tangent to the curve of the fluorescence values using at least six different points over time for each type of cell and condition.\n(§3) To analyse the effect of various stimuli on the metalloproteolytic activity of normal and polycystic human cholangiocytes cultures, a protocol similar to that described before in Example 2 was followed, but in this case the incubation of the cells was with quiescent medium (i.e. DMEM/F12, […]) in the presence of the corresponding stimulus (Table 3). Next, the same procedure as described for the analysis of basal metalloproteolytic activity was followed as described in Example 2.\n(§4) Taking into account that: i) basal activity of polycystic human cholangiocytes in culture is greater than that of normal human cholangiocytes and ii) that IL-6 and IL-8 increased the metalloproteolytic activity of normal and polycystic human cholangiocytes, the role of these two cytokines on metalloproteolytic hyperactivity of polycystic human cholangiocytes using antibodies against the receptors of IL-6 (IL6R) and/or IL-8 (CXCR1) was investigated. […]"}, "[2]": {"system": "polycystic human cholangiocytes", "experiment": "Metalloproteolytic activity of culture supernatants, ES001 fluorogenic peptide cleavage", "type": "cell-based", "procedure": "as §1, §2, §3, §4"}, "polycystic livers": {"system": "polycystic livers", "conditions": "ADPKD patients subjected to kidney transplant with polycystic livers; cited from earlier work"}, "[3]": {"system": "normal human cholangiocytes", "experiment": "MMP mRNA expression by quantitative PCR in the presence of IL-6, IL-8 or 17β-estradiol", "type": "cell-based", "procedure": "(§5) To determine if the metalloproteolytic hyperactivity of polycystic human cholangiocytes is associated with changes in the pattern of expression of MMPs and their natural inhibitors, TIMPs, at the level of mRNA, this was analysed by quantitative PCR (i.e. qPCR) using the cDNA previously obtained as explained in Example 1, the gene expression of a total of 22 genes, including those containing the members of the metalloprotease family: MMP-1, MMP-2, MMP-3, MMP-7, MMP-8, MMP-9, MMP-10, MMP-11, MMP-13, MMP-14, MMP-15, MMP-16, MMP-17, MMP-18, MMP-24, MMP-25, MMP-26, MMP-27 and their natural inhibitors: TIMP-1, TIMP-2, TIMP-3, TIMP-4. Briefly, 4 μl of the cDNA were taken and 1.8 μl of a 10 μM solution of each primer (final concentration 0.9 μM) and 10 μl of FastSYBR® Green (Applied Biosystems) were added, adding sterile water (Braun) to reach a final volume of 20 μl. The amplification reactions were performed in a StepOne Plus (Applied Biosystems) thermo cycler following the standard protocol conditions for FastSYBR Green®.\n(§6) The relative estimate of the mRNA levels of the genes of Table 2 were calculated from the PCR progression curve (fluorescence vs. cycle), where the cycle threshold or Ct was determined from when the fluorescence signal begins to increase exponentially. Thus to calculate the difference of relative expression of the normal and polycystic human cholangiocytes, the data obtained were analysed following the modified method of Livak and Schmittgen (Livak K J, et al. Methods 2001; 25:402), according to the following equation:\n(§7) Relative values=1.8^(polycystic or normal cholangiocyte GAPDH−polycystic or normal cholangiocyte GEN)\n(§8) Where the superscripts “GAPDH polycystic or normal cholangiocytes” and “Gene polycystic or normal cholangiocytes” correspond to the Ct for GAPDH and for each studied gene. The value of 1.8 (in place of 2) was used because it is assumed that the real efficiency of each amplification cycle is around 80% instead of 100%.\nas §3\n(§9) Taking into account the increase in metalloproteolytic activity induced by interleukins 6 and 8 and also the oestrogen 17β-estradiol in human cholangiocytes in culture, this was further investigated to determine if the increase in activity was correlated with an increase in gene expression at the level of mRNA of the various MMPs."}, "[4]": {"system": "polycystic human cholangiocytes", "experiment": "MMP mRNA expression by quantitative PCR in the presence of IL-6, IL-8 or 17β-estradiol", "type": "cell-based", "procedure": "as §5, §6, §7, §8, §3, §9"}, "[5]": {"conditions": "in vivo; cited from earlier work"}, "PCK rats": {"system": "PCK rats", "conditions": "cited from earlier work"}},
  "data": [
    {"smiles": "CNC(=O)[C@H](Cc1c[nH]c2ccccc12)NC(=O)[C@@H](CC(=O)NO)CC(C)C", "note": "[GM6001]", "values": [
      {"measurement": "metalloproteolytic activity of the assay with recombinant MMP-10", "setting": "recombinant MMP-10", "result": "inhibited"},
      {"measurement": "metalloproteolytic activity", "setting": "[1]; normal human cholangiocytes, presence of MMP inhibitor GM6001, p<0.001, FIG. 2", "result": "inhibited"},
      {"measurement": "metalloproteolytic activity", "setting": "[2]; polycystic human cholangiocytes, presence of MMP inhibitor GM6001, p<0.001, FIG. 2", "result": "inhibited"}
    ]},
    {"smiles": "C=CC[C@@H]1/C=C(\\C)C[C@H](C)C[C@H](OC)[C@H]2O[C@@](O)(C(=O)C(=O)N3CCCC[C@H]3C(=O)O[C@H](/C(C)=C/[C@@H]3CC[C@@H](O)[C@H](OC)C3)[C@H](C)[C@@H](O)CC1=O)[C@H](C)C[C@@H]2OC", "note": "[tacrolimus]", "values": [
      {"measurement": "volume of the liver", "setting": "polycystic livers", "result": "increased the volume of the liver"}
    ]},
    {"smiles": "C[C@]12CC[C@@H]3c4ccc(O)cc4CC[C@H]3[C@@H]1CC[C@@H]2O", "note": "[17β-estradiol]", "values": [
      {"measurement": "expression of the other metalloproteinases 1, 8, 9, 14, 16, 18, 24 and 26", "setting": "[3]", "result": "did not show changes"},
      {"measurement": "expression of MMP-2 (mRNA)", "setting": "[3]; FIG. 10", "result": "none of these modules induced changes"},
      {"measurement": "expression of MMP-3 (mRNA)", "setting": "[3]; FIG. 11", "result": "increased"},
      {"measurement": "expression of MMP-7 (mRNA)", "setting": "[3]; FIG. 12", "result": "None of the 3 molecules caused changes"},
      {"measurement": "expression of MMP-10 (mRNA)", "setting": "[3]; FIG. 13", "result": "increased"},
      {"measurement": "expression of MMP-11 (mRNA)", "setting": "[3]; FIG. 14", "result": "increased"},
      {"measurement": "expression of MMP-13 (mRNA)", "setting": "[3]; FIG. 15", "result": "increased"},
      {"measurement": "expression of MMP-15 (mRNA)", "setting": "[3]; FIG. 16", "result": "did not change"},
      {"measurement": "expression of MMP-17 (mRNA)", "setting": "[3]; FIG. 17", "result": "did not change"},
      {"measurement": "expression of MMP-27 (mRNA)", "setting": "[3]; FIG. 18", "result": "did not change"},
      {"measurement": "expression of the other metalloproteinases 1, 8, 9, 14, 16, 18, 24 and 26", "setting": "[4]", "result": "did not show changes"},
      {"measurement": "expression of MMP-2 (mRNA)", "setting": "[4]; FIG. 10", "result": "increased"},
      {"measurement": "expression of MMP-3 (mRNA)", "setting": "[4]; FIG. 11", "result": "unchanged"},
      {"measurement": "expression of MMP-7 (mRNA)", "setting": "[4]; FIG. 12", "result": "unchanged"},
      {"measurement": "expression of MMP-10 (mRNA)", "setting": "[4]; FIG. 13", "result": "none of the 3 molecules caused changes"},
      {"measurement": "expression of MMP-11 (mRNA)", "setting": "[4]; FIG. 14", "result": "increased"},
      {"measurement": "expression of MMP-13 (mRNA)", "setting": "[4]; FIG. 15", "result": "increased"},
      {"measurement": "expression of MMP-15 (mRNA)", "setting": "[4]; FIG. 16", "result": "not altered"},
      {"measurement": "expression of MMP-17 (mRNA)", "setting": "[4]; FIG. 17", "result": "increased"},
      {"measurement": "expression of MMP-27 (mRNA)", "setting": "[4]; FIG. 18", "result": "unchanged"},
      {"measurement": "metalloproteolytic activity in presence of stimulus", "setting": "[1]; normal cholangiocytes vs basal, Table 3 final concentration: IL-6, IL-8 50 ng/ml, 17β-estradiol 1 nM/ml, VEGF, EGF, ENA-78, GRO-α 10 ng/ml, HGF 20 ng/ml, FIG. 9", "result": "increase"},
      {"measurement": "metalloproteolytic activity in presence of stimulus", "setting": "[2]; polycystic cholangiocytes vs basal, Table 3 final concentration: IL-6, IL-8 50 ng/ml, 17β-estradiol 1 nM/ml, VEGF, EGF, ENA-78, GRO-α 10 ng/ml, HGF 20 ng/ml, FIG. 9", "result": "increase"}
    ]},
    {"smiles": "O=C(C[C@H](CSc1ccccc1)C(=O)O)c1ccc(-c2ccc(Cl)cc2)cc1", "note": "[BAY-12-9566]", "values": [
      {"measurement": "half-life in plasma", "setting": "[5]", "result": "90 to 100", "unit": "h"}
    ]},
    {"smiles": "C[C@@H](O)[C@@H]1NC(=O)[C@H](CCCCN)NC(=O)[C@@H](Cc2c[nH]c3ccccc23)NC(=O)[C@H](Cc2ccccc2)NC(=O)[C@@H](NC(=O)[C@H](N)Cc2ccccc2)CSSC[C@@H](C(=O)N[C@H](CO)[C@@H](C)O)NC1=O", "note": "[octreotide]", "values": [
      {"measurement": "liver cystogenesis", "setting": "PCK rats", "result": "inhibited"}
    ]}
  ]
}
